According to patent US12421254B2, “KRAS modulators and uses thereof” (Quanta Therapeutics, Inc., priority 2023, dated 2025):

Columns and labels:
[1] = test system: phospho-ERK in SW620 (KRAS-G12V) cells; assay: pERK In Cell Western (ICW) assay (Method B), SW620; type: cell-based
Procedure: (§1) pERK ICW is a high throughput screening assay to evaluate the cellular potency of mutant KRAS small molecule inhibitors. KRAS mutant cell lines AGS, GP2D (KRAS-G12D) as well as SW620 (KRAS-G12V) were purchased from ATCC and maintained respectively in RPMI/DMEM/RPMI medium supplemented with 10% fetal bovine serum.
(§2) Cells grown in exponential phase were trypsinized, resuspended in fresh media, and viable cells were counted using a cell counter with Trypan Blue (BioRad TC20). Cells were seeded into 384-well plate (Greiner 781091) at density of 5,000 cells/well for AGS and 10,000 cells/well for GP2D/SW620 and allowed to grow overnight in a 37° C. CO2 incubator. The next day, compounds were dispensed into wells with a ½ log, 9-point serial dilution using a Tecan D300e dispenser and incubated for 3 hours in a 37° C. CO2 incubator. Cells were then fixed with paraformaldehyde (Electron Microscopy Sciences, 15710, 4% final concentration) for 30 min, permeabilized with wash buffer (1×PBS+0.1% Triton X-100) for 30 min and blocked with Odyssey blocking buffer (Li—COR 927-70001) for 1 hour, all at room temperature (RT). Phospho-ERK antibody (CST 4370L) was diluted 1:500 in Odyssey T20 (PBS) antibody diluent (Li—COR 927-75001) and incubated with cells overnight at 4° C. The next day, plates were washed 5× with wash buffer, incubated with IRDye 800 CW, Goat anti-Rabbit secondary antibody (Li—COR 926-32211, 1:800) and DRAQ5 (CST 4084L, 1:5,000) diluted in Odyssey T20 (PBS) antibody diluent for 1 hour, washed 5×, and imaged on an Odyssey CLx imaging system.
(§3) For data analysis, signal intensities from 800 (phosphor-ERK) and 700 (DRAQ5) channels were extracted, and phospho-ERK signals were normalized to DRAQ5 signals for each well and percent of blank control values were computed. Data were then imported into Graphpad Prism to compute half-maximal inhibitory concentrations (IC50) using a 4-parameter variable slope model. Z-factor for each plate was computed from signals derived from wells treated with either DMSO or 5 μM of control compound. AGS pERK ICW (Method B) IC50 (uM) values of selected compounds are depicted in Table 2 with compounds having a value ≥0.001 uM to 0.01 uM as ++++; ≥0.01 uM to 0.1 uM as +++; ≥0.1 uM to 1 uM as ++; ≥1 uM to 10 uM as + and ≥10 uM as NA.

[2] = test system: phospho-ERK in GP2D (KRAS-G12D) cells; assay: pERK In Cell Western (ICW) assay (Method B), GP2D; type: cell-based; conditions: GP2d, 3 h, Table 4
Procedure: as §1, §2, §3

[3] = biological target: GST-tagged KRAS-G12D (2-169) (Homo sapiens, UniProt P01116, G12D); assay: Nucleotide exchange assay (NEA), SOS-mediated, HTRF, KRAS G12D; type: biochemical; conditions: Table 4; IC50 extracted at 30 min; 20 nM SOScat; read-out: NEA G12D IC50
Chain of GST-tagged KRAS-G12D (2-169) (P01116 2-169 isoform P01116-2 G12D): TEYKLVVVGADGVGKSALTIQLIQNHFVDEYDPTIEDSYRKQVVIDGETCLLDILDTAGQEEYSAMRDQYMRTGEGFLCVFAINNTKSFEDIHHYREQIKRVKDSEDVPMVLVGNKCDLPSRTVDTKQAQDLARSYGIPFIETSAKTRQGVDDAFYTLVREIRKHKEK
In short: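 SOS1cat-driven loading of fluorescent GTP-DY-647P1 (150 nM) onto GST-KRAS-G12D (2-169, 0.25 nM) read by time-resolved FRET; SOScat 20 nM, compound preincubated with KRAS 1 h at RT. Signal blanked to no-SOS reactions, normalized to DMSO; IC50 fitted from the 30-min read.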

[4] = biological target: GST-tagged KRAS-G12V (2-169) (Homo sapiens, UniProt P01116, G12V); assay: Nucleotide exchange assay (NEA), SOS-mediated, HTRF, KRAS G12V; type: biochemical; conditions: Table 4; IC50 extracted at 90 min; 80 nM SOS
Chain of GST-tagged KRAS-G12V (2-169) (P01116 2-169 isoform P01116-2 G12V): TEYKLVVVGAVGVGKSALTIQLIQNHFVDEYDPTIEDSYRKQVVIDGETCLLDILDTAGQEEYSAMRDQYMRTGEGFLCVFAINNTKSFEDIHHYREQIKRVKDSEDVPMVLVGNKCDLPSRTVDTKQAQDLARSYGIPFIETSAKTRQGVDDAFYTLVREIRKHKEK
In short: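 Exchange onto fluorescent GTP-DY-647P1 (150 nM final) catalysed by 80 nM SOS1cat was followed by Tb-anti-GST HTRF at RT for up to 90 min, after 1 h compound pre-incubation with 0.25 nM GST-tagged KRAS-G12V (2-169), pH 7.3. DMSO = 0%, no-SOS blank = 100%; 4-parameter IC50 taken at 90 min.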

[5] = Homo sapiens, SW-620, 3 h, Table 4

Compound	IC50 [1, 5] [nM]	IC50 [2] [nM]	IC50 [3] [nM]	IC50 [4] [nM]	IC50 ([1]; Table 4, 3 hours) [nM]
CCN(c1nc(OCC2CCC3C(=O)N(C)CCN23)nc(N2CC3(C2)SCc2sc(N)c(C#N)c23)n1)C(C)c1cccnc1N (mixture of isomers) [Compound 210, 1′-[4-[[(6SR,8aSR)-2-methyl-1-oxo-3,4,6,7,8,8a-hexahydropyrrolo[1,2-a]pyrazin-6-yl]methoxy]-6-[[(IR)-1-(2-amino-3-pyridyl)ethyl]-ethyl-amino]-1,3,5-triazin-2-yl]-2-amino-spiro[6H-thieno[3,4-b]thiophene-4,3′-azetidine]-3-carbonitrile]	10 to 100	100 to 1000	< 10	< 10	
CCN(c1nc(OC[C@@H]2CC[C@H]3CN(C)CCN23)nc(N2CC3(C2)SCc2sc(N)c(C#N)c23)n1)[C@H](C)c1cccnc1N (mixture of isomers) [Compound 219, 1′-[4-[[(6SR,8aSR)-2-methyl-3,4,6,7,8,8a-hexahydro-1H-pyrrolo[1,2-a]pyrazin-6-yl]methoxy]-6-[[(1R)-1-(2-amino-3-pyridyl)ethyl]-ethyl-amino]-1,3,5-triazin-2-yl]-2-amino-spiro[6H-thieno[3,4-b]thiophene-4,3′-azetidine]-3-carbonitrile]	10 to 100	100 to 1000	< 10	< 10	
C[C@@H]1[C@H](CO)CCCN1c1nc(OC[C@@]23CCCN2C[C@H](F)C3)nc(N2CC3(CCc4sc(N)c(C#N)c43)C2)n1 (racemic) [Compound 24, 2-amino-1′-[4-[[(2R,8S)-2-fluoro-1,2,3,5,6,7-hexahydropyrrolizin-8-yl]methoxy]-6-[rac-(2R,3R)-3-(hydroxymethyl)-2-methyl-1-piperidyl]-1,3,5-triazin-2-yl]spiro[5,6-dihydrocyclopenta[b]thiophene-4,3′-azetidine]-3-carbonitrile]		1000 to 20000	100 to 1000	100 to 1000	
C[C@]1(O)CN(c2nc(OC[C@@]34CCCN3C[C@H](F)C4)nc(N3CC4(CCc5sc(N)c(C#N)c54)C3)n2)CC[C@@H]1O (racemic) [Compound 62, 2-amino-1′-[4-[rac-(3S,4S)-3,4-dihydroxy-3-methyl-1-piperidyl]-6-[[(2R,8S)-2-fluoro-1,2,3,5,6,7-hexahydropyrrolizin-8-yl]methoxy]-1,3,5-triazin-2-yl]spiro[5,6-dihydrocyclopenta[b]thiophene-4,3′-azetidine]-3-carbonitrile]	≥ 20000	≥ 20000	100 to 1000	100 to 1000	
N#Cc1c(N)sc2c1C1(CC2)CN(c2nc(OC[C@@]34CCCN3C[C@H](F)C4)nc(N3CCOCC(C#N)C3)n2)C1 (single isomer, unassigned) [Compound 91A, (6*)-4-[4-(2-amino-3-cyano-spiro[5,6-dihydrocyclopenta[b]thiophene-4,3′-azetidine]-1′-yl)-6-[[(2R,8S)-2-fluoro-1,2,3,5,6,7-hexahydropyrrolizin-8-yl]methoxy]-1,3,5-triazin-2-yl]-1,4-oxazepane-6-carbonitrile]		100 to 1000	< 10	< 10	100 to 1000
N#CCC1C=C(F)CN(c2nc(OC[C@@]34CCCN3C[C@H](F)C4)nc(N3CC4(CCc5sc(N)c(C#N)c54)C3)n2)C1 (stereo partly drawn) [Compound 25, 2-amino-1′-[4-[3-(cyanomethyl)-5-fluoro-3,6-dihydro-2H-pyridin-1-yl]-6-[[(2R,8S)-2-fluoro-1,2,3,5,6,7-hexahydropyrrolizin-8-yl]methoxy]-1,3,5-triazin-2-yl]spiro[5,6-dihydrocyclopenta[b]thiophene-4,3′-azetidine]-3-carbonitrile]		100 to 1000	10 to 100	10 to 100	
N#Cc1c(N)sc2c1C1(CC2)CN(c2nc(OC[C@@]34CCCN3C[C@H](F)C4)nc(N3C[C@H](O)C[C@@H](O)C3)n2)C1 [Compound 26, 2-amino-1′-[4-[(3R,5R)-3,5-dihydroxy-1-piperidyl]-6-[[(2R,8S)-2-fluoro-1,2,3,5,6,7-hexahydropyrrolizin-8-yl]methoxy]-1,3,5-triazin-2-yl]spiro[5,6-dihydrocyclopenta[b]thiophene-4,3′-azetidine]-3-carbonitrile]		≥ 20000	10 to 100	10 to 100	
C[C@@]1(O)CCCN(c2nc(OC[C@@]34CCCN3C[C@H](F)C4)nc(N3CC4(CCCc5sc(N)c(C#N)c54)C3)n2)C1 [Compound 30, 2-amino-1′-[4-[[(2R,8S)-2-fluoro-1,2,3,5,6,7-hexahydropyrrolizin-8-yl]methoxy]-6-[(3R)-3-hydroxy-3-methyl-1-piperidyl]-1,3,5-triazin-2-yl]spiro[6,7-dihydro-5H-benzothiophene-4,3′-azetidine]-3-carbonitrile]		100 to 1000	10 to 100	10 to 100	
N#Cc1c(N)sc2c1C1(CC2)CN(c2nc(OC[C@@]34CCCN3C[C@H](F)C4)nc(N3CCc4noc(N)c4C3)n2)C1 [Compound 31, 2-amino-1′-[4-(3-amino-6,7-dihydro-4H-isoxazolo[4,3-c]pyridin-5-yl)-6-[[(2R,8S)-2-fluoro-1,2,3,5,6,7-hexahydropyrrolizin-8-yl]methoxy]-1,3,5-triazin-2-yl]spiro[5,6-dihydrocyclopenta[b]thiophene-4,3′-azetidine]-3-carbonitrile]		100 to 1000	10 to 100	100 to 1000	
N#CNC1CCCN(c2nc(OC[C@@]34CCCN3C[C@H](F)C4)nc(N3CC4(CCc5sc(N)c(C#N)c54)C3)n2)C1 (stereo partly drawn) [Compound 33, [1-[4-(2-amino-3-cyano-spiro[5,6-dihydrocyclopenta[b]thiophene-4,3′-azetidine]-1′-yl)-6-[[(2R,8S)-2-fluoro-1,2,3,5,6,7-hexahydropyrrolizin-8-yl]methoxy]-1,3,5-triazin-2-yl]-3-piperidyl]cyanamide]		100 to 1000	10 to 100	< 10	
CN(C)CC1(COc2nc(N3CC4(CCc5sc(N)c(C#N)c54)C3)nc(N3CCC[C@@](C)(O)C3)n2)CC1(F)F (stereo partly drawn) [Compound 34, 2-amino-1′-[4-[[1-[(dimethylamino)methyl]-2,2-difluoro-cyclopropyl]methoxy]-6-[(3R)-3-hydroxy-3-methyl-1-piperidyl]-1,3,5-triazin-2-yl]spiro[5,6-dihydrocyclopenta[b]thiophene-4,3′-azetidine]-3-carbonitrile]		10 to 100	< 10	< 10	
N#Cc1c(N)sc2c1C1(CN(c3nc(OCC4(CN5CCOCC5)CC4)nc(N4C[C@@H]5CC[C@@H](N5)C4CO)n3)C1)SC2 (stereo partly drawn) [Compound 188, 2′-amino-1-(4-((1R,5S)-2-(hydroxymethyl)-3,8-diazabicyclo[3.2.1]octan-3-yl)-6-((1-(morpholinomethyl)cyclopropyl)methoxy)-1,3,5-triazin-2-yl)-6′H-spiro[azetidine-3,4′-thieno[3,4-b]thiophene]-3′-carbonitrile]		< 10	< 10	10 to 100	
N#Cc1c(N)sc2c1C1(CN(c3nc(OC[C@@]45CCCN4C[C@H](F)C5)nc(N4CC(O)NC(=O)C45CC5)n3)C1)SC2 (stereo partly drawn) [Compound 255, 2-amino-1′-[4-[[(2R,8S)-2-fluoro-1,2,3,5,6,7-hexahydropyrrolizin-8-yl]methoxy]-6-(6-hydroxy-8-oxo-4,7-diazaspiro[2.5]octan-4-yl)-1,3,5-triazin-2-yl]spiro[6H-thieno[3,4-b]thiophene-4,3′-azetidine]-3-carbonitrile]	1000 to 20000		< 10	< 10	
